The source made the active and inactive calls.
Assays:
[1] = biological target: Luciferin 4-monooxygenase (Photinus pyralis, UniProt P08659); experiment: firefly luciferase enzyme inhibitors, dose response, biochemical, luminescence (AID 1891)
[2] = Luminescence Cell-Based Dose Confirmation HTS to Identify Inhibitors of Platelet Dense Granule Release. [Related pubchem assays: 1663 (Primary HTS), 1678 (Summary of Project)]; format: functional
[3] = NIH-3T3 fibroblast cytotoxicity, dose response, cytotoxicity control, cell-based, fluorescence, Alamar Blue, secondary assay (AID 2327); format: functional;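 further: NIH-3T3 mouse fibroblasts cultured with fluconazole at 8 µg/mL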
[4] = C. albicans growth with fluconazole, confirmation, fluorescence, retest (AID 2467); format: functional, cell-based
[5] = biological target: T1, Calpain-2 catalytic subunit (Sus scrofa, UniProt P43367); experiment: pig calpain II inhibitor potency, dose response, biochemical, fluorogenic peptide substrate (AID 1420); format: functional
T1 sequence (P43367 whole entry): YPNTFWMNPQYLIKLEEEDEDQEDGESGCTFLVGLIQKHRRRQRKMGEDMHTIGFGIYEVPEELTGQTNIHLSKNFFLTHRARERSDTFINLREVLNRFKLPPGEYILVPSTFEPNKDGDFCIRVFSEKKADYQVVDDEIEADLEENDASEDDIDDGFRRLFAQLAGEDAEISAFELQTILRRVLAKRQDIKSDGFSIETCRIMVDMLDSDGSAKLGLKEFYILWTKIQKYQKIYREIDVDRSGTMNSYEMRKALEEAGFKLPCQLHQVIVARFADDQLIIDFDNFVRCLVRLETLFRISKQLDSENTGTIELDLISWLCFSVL

[6] = Shn3 3'UTR reporter inhibitors, dose response, cell-based, Clone20 osteoblasts, firefly luciferase, cherry-picked (AID 624132); format: functional;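 further: firefly luciferase luminescence from reporter carrying the Shn3 3'UTR in osteoblasts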
[7] = HepG2 cell cytotoxicity, dose response, cytotoxicity control for Shn3 inhibitor project, CellTiter-Glo, cherry-picked (AID 624134); format: functional, cell-based
[8] = control 3'UTR Renilla luciferase suppression, dose response, counter-screen for Shn3 inhibitor project, cell-based, Clone20-Shn3RL, cherry-picked (AID 624133); format: functional
[9] = Luminescence Cell-Based Dose Retest to Confirm Inhibitors of Cancer Stem Cells. [Related pubchem assays (depositor defined):AID2717, AID2721]; format: functional; conditions: Homo sapiens
INS1 = experiment: beta cell apoptosis inhibitors, cytokine rescue, dose response, luminescence, retest (AID 449756); format: functional, cell-based; conditions: Rattus norvegicus;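 further: cell death triggered by IL-1 beta plus TNF-alpha plus IFN-gamma mixture; protective hits raise ATP signal compared with cytokine alone wells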
[10] = biological target: T2, Rac GTPase-activating protein 1 (Homo sapiens, UniProt Q9H0H5); experiment: MgcRacGAP GTPase-activating activity inhibitors, confirmation, biochemical, ADP Hunter fluorescence, primary and confirmatory (AID 624330); format: functional
T2 sequence (Q9H0H5 whole entry): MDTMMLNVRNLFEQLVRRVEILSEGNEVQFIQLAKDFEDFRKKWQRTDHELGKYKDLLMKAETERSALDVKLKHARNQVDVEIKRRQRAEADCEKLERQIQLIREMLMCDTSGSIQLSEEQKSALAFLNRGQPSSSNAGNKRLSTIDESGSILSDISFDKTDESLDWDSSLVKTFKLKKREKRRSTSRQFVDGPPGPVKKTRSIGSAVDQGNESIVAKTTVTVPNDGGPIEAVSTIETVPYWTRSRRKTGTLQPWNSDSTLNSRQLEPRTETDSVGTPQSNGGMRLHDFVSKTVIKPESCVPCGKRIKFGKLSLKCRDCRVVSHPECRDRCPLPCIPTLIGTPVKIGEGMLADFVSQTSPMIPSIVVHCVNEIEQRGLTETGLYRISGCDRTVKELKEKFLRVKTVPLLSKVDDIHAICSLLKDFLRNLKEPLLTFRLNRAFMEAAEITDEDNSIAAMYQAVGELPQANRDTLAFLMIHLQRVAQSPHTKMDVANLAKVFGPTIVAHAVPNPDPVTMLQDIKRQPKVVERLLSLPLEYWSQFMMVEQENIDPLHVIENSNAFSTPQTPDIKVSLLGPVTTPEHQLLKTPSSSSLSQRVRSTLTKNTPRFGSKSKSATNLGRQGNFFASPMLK

[11] = inhibitors of firefly luciferase expression or activity, dose response, H4 neuroglioma cells, luminescence (AID 1990); format: functional, cell-based
[12] = Luminescence Cell-Based Dose Response HTS to Identify Inhibitors of 5'UTR Stem-Loop Driven Prion Protein mRNA Translation in H4 Neuroglioblastoma Cells. [Related pubchem assays: 1827 (Project Summary), 1813 (Primary HTS)]; format: functional
[13] = inhibitors of SNCA 5'UTR-driven reporter translation, confirmation, H4 neuroglioma cells, luminescence (AID 1988); format: functional, cell-based

Luciferin 4-monooxygenase, sequence (P08659 whole entry): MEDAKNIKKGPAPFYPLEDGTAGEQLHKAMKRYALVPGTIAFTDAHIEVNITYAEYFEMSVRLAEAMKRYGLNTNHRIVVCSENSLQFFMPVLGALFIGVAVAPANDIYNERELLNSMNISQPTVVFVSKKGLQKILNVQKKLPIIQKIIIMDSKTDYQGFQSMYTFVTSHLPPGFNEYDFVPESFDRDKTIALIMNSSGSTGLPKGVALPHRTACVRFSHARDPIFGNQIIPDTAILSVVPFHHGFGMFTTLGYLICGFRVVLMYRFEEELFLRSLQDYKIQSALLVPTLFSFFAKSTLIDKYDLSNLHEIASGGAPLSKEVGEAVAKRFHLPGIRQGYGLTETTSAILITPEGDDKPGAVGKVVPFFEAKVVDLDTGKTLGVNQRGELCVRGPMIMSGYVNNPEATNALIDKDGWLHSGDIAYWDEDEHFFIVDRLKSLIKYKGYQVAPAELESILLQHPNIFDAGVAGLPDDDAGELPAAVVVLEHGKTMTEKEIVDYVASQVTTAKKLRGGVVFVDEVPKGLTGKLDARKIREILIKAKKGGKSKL

Q: For `COc1ccc(C(=O)Nc2cccc(C)c2)cc1`, which EC50 [1] is on record?
A: 16.1 µM (active)

Q: And the EC50 [2]?
A: 7.08 µM (active)

Q: With `CCNS(=O)(=O)c1ccc(NC(=O)c2cccnc2)cc1` as the compound, how does the EC50 [3] read?
A: > 160 µM (inactive)

Q: And the EC50 [4]?
A: > 38 µM (not active)

Q: And the EC50 [1]?
A: > 112 µM (not active)

Q: What about the EC50 [2] of the same compound?
A: > 112 µM (not active)

Q: With `COC(=O)c1ccccc1NC(=S)NC(=O)COc1ccccc1` as the compound, how does the IC50 [5] read?
A: 6.37 µM (not active)

Q: With `CC(C)CC(C(=O)OCC(=O)c1c(N)n(C)c(=O)n(C)c1=O)N1C(=O)C2CC=CCC2C1=O` (stereo not drawn) as the compound, how does the IC50 [5] read?
A: 12.9 µM (not active)

Q: Which results are given for `Cc1onc(-c2ccccc2Cl)c1C(=O)N1CCC(Cc2ccccc2)CC1`?
A: AC50 [6]: 2.29 µM (active); AC50 [7]: 46.3 µM (active); AC50 [8]: 4.54 µM (active)

Q: Which IC50 [5] does the source give for `Cn1c(=O)[nH]c(=O)c2[nH]c(N(Cc3ccccc3)Cc3ccccc3)nc21` here?
A: > 50 µM (not active)

Q: What does the source list for `Cn1c(NC(=O)Cc2cccs2)cc(=O)n(C)c1=O`?
A: EC50 [1]: > 112 µM (not active); EC50 [2]: > 112 µM (not active)

Q: For `CC(=O)c1ccc(N=C(S)N(Cc2ccccc2)C(C)C2CC2)cc1` (stereo not drawn), which IC50 [5] is on record?
A: 23.9 µM (not active)

Q: With `CC1N(O)C(c2ccc(Cl)cc2Cl)N(O)C1(C)C` (stereo not drawn) as the compound, how does the EC50 [1] read?
A: > 112 µM (not active)

Q: What about the EC50 [2] of the same compound?
A: > 112 µM (not active)

Q: With `CCCCCCSc1ccc(-c2nc3ccccn3c2NCCCC)cc1` as the compound, how does the AC50 [9] read?
A: 4.4 µM (active)

Q: For `O=C(NCc1cccc(Cl)c1)c1ccc2c(c1)SC1=NS(=O)(=O)CCN12`, which IC50 [5] is on record?
A: 14.8 µM (not active)

Q: With `C=CCCc1ccc(C#N)c(SCc2c(C(=O)OCC)c3cc(OC(C)=O)c(Br)cc3n2C)n1` as the compound, how does the AC50 (INS1) read?
A: 1.14 µM (active)

Q: What about the AC50 [7] of the same compound?
A: 9.37 µM (active)

Q: What about the AC50 [8] of the same compound?
A: 2.75 µM (active)

Q: Which IC50 [10] does the source give for `COc1cc(/C=C/C(=O)OCC(=O)Nc2c(C)n(C)n(-c3ccccc3)c2=O)ccc1O` here?
A: 63.9 µM (active)

Q: What does the source list for `COc1cccc(NP(=O)(Oc2ccccc2)Oc2ccccc2)c1`?
A: EC50 [11]: > 120 µM (not active); EC50 [12]: 59.4 µM (active); EC50 [13]: > 120 µM (not active); AC50 [9]: 0.935 µM (active)

Q: For `c1ccc(CC2CCN(Cc3ccccn3)CC2)cc1`, which IC50 [10] is on record?
A: 216 µM (active)

Q: Which IC50 [5] does the source give for `CC(C)(C)NC(=O)c1cc(C(C)(C)C)c(O)c(C(C)(C)C)c1` here?
A: 3.38 µM (not active)

Q: Which IC50 [5] does the source give for `COc1ccc(NC(=O)CN(c2ccccc2)S(=O)(=O)c2ccccc2)c(OC)c1` here?
A: 49.3 µM (not active)

Q: With `c1ccc(CCn2nnnc2CN2CCN(C3CCCC3)CC2)cc1` as the compound, how does the IC50 [5] read?
A: > 50 µM (not active)

Q: For `COc1cc(/C=C(/NC(=O)c2ccccc2)C(=O)Nc2ccc(O)cc2)c([N+](=O)[O-])cc1OC`, which IC50 [10] is on record?
A: 55.7 µM (active)

Q: For `CCCNc1nc2c(c(=O)n(C)c(=O)n2C)n1Cc1cccc(C)c1`, which AC50 [6] is on record?
A: 1.91 µM (active)

Q: And the AC50 [7]?
A: > 70 µM (inactive)

Q: What about the AC50 [8] of the same compound?
A: 8.85 µM (active)

Q: Which IC50 [5] does the source give for `O=[N+]([O-])c1ccc2c(c1)C(N1CCOCC1)/C(=C/COc1ccc(Cl)cc1Cl)O2` (stereo not drawn) here?
A: 5.41 µM (not active)

Q: With `COC(=O)c1cc2n(n1)CCN(Cc1ccc(F)cc1)C2=O` as the compound, how does the EC50 [1] read?
A: > 112 µM (not active)

Q: And the EC50 [2]?
A: > 112 µM (not active)

Q: Which IC50 [10] does the source give for `COc1cc(OC)cc(C(=O)N2CCN(Cc3ccccc3Br)CC2)c1` here?
A: 325 µM (active)

Q: With `COc1cc2c(cc1OC)-c1cc(Nc3ccc(C)cc3)nc(=O)n1CC2` as the compound, how does the EC50 [1] read?
A: > 112 µM (not active)

Q: And the EC50 [2]?
A: 3.46 µM (active)

Q: Which results are given for `CC(Sc1ccccc1)C(=O)Nc1ccccc1C(=O)N1CCOCC1` (stereo not drawn)?
A: EC50 [1]: > 112 µM (not active); EC50 [2]: > 112 µM (not active)
